Results from patent US20240335439A1, “USE OF AND METHOD FOR TELAPREVIR IN PREPARATION OF DRUG FOR TREATING AN ISCHEMIA/REPERFUSION INJURY AND CYTOPROTECTIVE DRUG” (THE THIRD XIANGYA HOSPITAL OF CENTRAL SOUTH UNIVERSITY, priority 2021, published 2024).

Columns and labels:
SH-SY5Y nerve cells = experiment: NMDA induced nerve cell injury model of SH-SY5Y cells, MTS viability; type: cell-based; conditions: 1 mM NMDA 30 minutes, then 24 h culture; telaprevir 1, 5, 10 μM; FIG. 5C
Procedure: SH-SY5Y nerve cells were purchased from the Xiangya Cell Bank of Central South University.
Cell culture method: Following a conventional cell culture method, the above SH-SY5Y nerve cells were cultured in an RPMI 1640 medium (containing 20% of fetal bovine serum). When the cells fused and grew to 80-90%, the cells were digested with a trypsin. After the cells shrank and became round and the intercellular space was obvious, the digestion was immediately terminated with a medium, the cells were dispersed and blown evenly into a single suspension state, passaged in bottles, and cultured in a 37° C. cell incubator containing 5% of CO2.
The SH-SY5Y cells at the fusion rate of 80-90% or more can be seeded on plates. […]
Cell viability was detected by MTS.
The measurement followed the operating instructions of a commercially available MTS kit (Promega (Beijing) Biotech Co., Ltd.). […] The absorbance of the cells at 490 nm was measured by enzyme-linked immunosorbent assay (the absorbance was controlled at 0.7-1.2), where the absorbance value reflected relative cell viability. Calculation: cell viability (%)=absorbance of the drug group/absorbance of the control group×100%. When the absorbance value of each group was calculated, the absorbance value of the background blank control group was first subtracted.

[1] = test system: Alzheimer's disease mouse models; experiment: Alzheimer's disease mouse model (Aβ1-42 into hippocampus), Morris water maze experiment; type: in vivo, ICR mice; conditions: telaprevir 40 mg/kg intramuscular daily for 17 days, #P<0.05 vs AD+vehicle
Procedure: Experimental animals: 7-week-old healthy male ICR mice weighing 25-30 g. The experimental animals were raised for one week in an environment with a temperature of 25° C., a relative humidity of 60%, free drinking water, and timed and quantified feeding, and then administered according to the requirements of each experimental group.
Building of an Alzheimer's disease mouse model and drug treatment: Aβ1-42 was purchased from MCE Reagent Company, dissolved in DMSO, diluted with physiological saline to 2 μg/μL, and incubated in an incubator at 37° C. for 7 days to convert the Aβ1-42 into an aggregated state. […]
A learning and memory ability and cognitive function of mice were detected by a Morris water maze experiment and a new/old object recognition experiment.
According to the requirements of the water maze experiment, a Morris water maze was divided into four quadrants, a platform having a diameter of 12 cm and a height of 35 cm was placed in one of the quadrants, water was added to submerge the platform 1-2 cm, and the pool water was dyed black with carbon ink. After the positioning navigation experiment lasted for 5 days, the platform was removed for a spatial probe experiment, and the time for the mice to reach the original platform position (namely, incubation period) and the number of times they crossed the platform were recorded.

In the case of `CCC[C@H](NC(=O)[C@@H]1[C@H]2CCC[C@H]2CN1C(=O)[C@@H](NC(=O)[C@@H](NC(=O)c1cnccn1)C1CCCCC1)C(C)(C)C)C(=O)C(=O)NC1CC1` [telaprevir], the “cell viability (MTS) of NMDA treated SH-SY5Y cells” value (SH-SY5Y nerve cells) is reported as “significantly inhibit a decrease”, the “time to find the original platform position (incubation period), Morris water maze” value ([1]; FIG. 6A) is reported as “significant decrease” and the “number of times they crossed the platform, Morris water maze” value ([1]; FIG. 6B) is reported as “significant increase”.
